Values after ≈ are worked out from the molar mass of the structure shown. Read-outs that look alike come from different tables or passages of the source.
Tests used:
E. faecalis ATCC29212 = experiment: Broth microdilution MIC/MBC (ISO 20776-1); type: cell-based, Enterococcus faecalis; settings: for MBC: E. faecalis ATCC29212, >99.99% reduction of growth; for MIC: E. faecalis ATCC29212, MH II broth, 35 °C, 24 h
Procedure: (§1) Bacterial strains and cell lines were obtained from the American Type Culture Collection (ATCC).[59] […] Antimicrobial activity was tested in Müeller Hinton (MH) II broth (Becton Dickinson). For anticancer activity assay, the following reagents from Merk were used: 3-(4,5-dimethylthiazol-2-yl)-2,5-diphenyltetrazolium bromide (MTT), sodium dodecyl sulfate (SDS) and HCl. The solubilized formazan product was spectrophotometrically quantified in a Power Wave XS (Bio Tek, Winooski, VT, USA) microplate reader. The HL-60 and PC-3 cells were grown in RPMI-1640 medium with stable glutamine (Biowest) supplemented with 10% (v/v) of heat-inactivated fetal bovine serum (FBS, Biowest) and 1% (v/v) of antibiotic–antimycotic solution (Biowest). The SKOV-3 cells were grown in McCoy's 5A medium with L-glutamine (Biowest) supplemented with 10% (v/v) heat-inactivated FBS, and 1% (v/v) antibiotic–antimycotic solution. The MCF-7 cells were grown in Eagle's MEM (Minimal Essential Medium) medium with stable glutamine (Biowest), supplemented with 10% (v/v) heat-inactivated FBS 1% (v/v) MEM non-essential amino acids (Biowest), 1% (v/v) antibiotic–antimycotic solution, and 1 mM sodium pyruvate (Merck). The MCF-10A cells were grown in Ham's F-12K (Kaighn's) Medium with stable glutamine (Gibco) supplemented with 5% (v/v) heat-inactivated FBS, 1% (v/v) MEM non-essential amino acids, 1% (v/v) antibiotic–antimycotic solution, 5 μg mL^−1 insulin, 0.04 μg mL^−1 hydrocortisone (Merck), and 15 ng mL^−1 human Epidermal Growth Factor (hEGF, PeproTech).
(§2) The in vitro antibacterial activity was determined according to ISO 20776-1.[88] Among the tested microorganisms were Gram-negative rods, E. coli ATCC25922 and P. aeruginosa ATCC27853, and Gram-positive cocci, S. aureus ATCC29213 and E. faecalis ATCC29212. The selected bacterial species represented the most common etiologic agents of human infections and are used for quality control of antimicrobial susceptibility testing.[89] The test procedure included the determination of MICs and MBCs of complexes and their free ligands. MIC and MBC determinations of ciprofloxacin, as the reference antibiotic, were also performed. All compounds were dissolved in DMSO to reach the maximum 512 mg L^−1 concentration. […] The assay consisted of preparing 2-fold dilutions of the substances in a liquid growth medium MH II and inoculating them with a standardized suspension of microorganisms at a McFarland density of 0.5 (≈10^8 CFU mL^−1). The culture plates were incubated at 35 °C for 24 h. The lowest concentration of the compound inhibiting visible bacterial growth was specified as MIC, and the concentration that reduced bacterial growth by >99.99% after counting live bacteria on the plates compared to the positive control was defined as MBC.

P. aeruginosa ATCC27853 = experiment: Broth microdilution MIC/MBC (ISO 20776-1); type: cell-based, Pseudomonas aeruginosa; settings: for MBC: P. aeruginosa ATCC27853, >99.99% reduction of growth; for MIC: P. aeruginosa ATCC27853, MH II broth, 35 °C, 24 h
Procedure: as §1, §2

E. coli ATCC25922 = experiment: Broth microdilution MIC/MBC (ISO 20776-1); type: cell-based, Escherichia coli; settings: for MBC: E. coli ATCC25922, >99.99% reduction of growth; for MIC: E. coli ATCC25922, MH II broth, 35 °C, 24 h
Procedure: as §1, §2

PC-3 cells = experiment: MTT cytotoxicity assay; type: cell-based, human; settings: MTT, read-out: IC50 ± SD
Procedure: (§3) The cytotoxicities for studied compounds were evaluated against leukemia cells (HL-60), as well as ovarian (SKOV-3), prostate (PC-3), and breast (MCF-7) cancer cell lines. The potential selectivity of these compounds towards cancer cells was assessed by determination of their cytotoxicities towards breast non-cancerous cells (MCF-10A). For comparison, cisplatin was added to the cytotoxicity assays.
as §1
(§4) The cells were cultured in 96-well plates and incubated with the tested compound for 24 h and 48 h. All experiments were performed in exponentially growing cultures. The 0.03 M solutions of the compounds in DMSO were appropriately diluted using culture media. The maximal final concentration of DMSO in each well was 0.1%. The cytotoxicity of the compounds was measured by determining cell viability with a colorimetric test based on 3-(4,5-dimethylthiazol-2-yl)-2,5-diphenyltetrazolium bromide (MTT). MTT stock solution was added to each well to a final concentration of 0.5 mg mL^−1 and incubated for 4 h at 37 °C; following formazan crystals were dissolved by the addition of sodium dodecyl sulfate (SDS) solution (10% SDS in 0.001 M HCl). MTT and SDS were added directly to the cell culture. The compound's IC50 values (concentration required to reduce the viability of cells by 50% compared with the control cells) were calculated from the data obtained with the MTT assay.

SKOV-3 cells = experiment: MTT cytotoxicity assay; type: cell-based, human; settings: for IC50: MTT, read-out: IC50 ± SD
Procedure: as §3, §1, §4

HL-60 cells = experiment: MTT cytotoxicity assay; type: cell-based, human
Procedure: as §3, §1, §4

MCF-7 cells = experiment: MTT cytotoxicity assay; type: cell-based, human; settings: for IC50: MTT, read-out: IC50 ± SD
Procedure: as §3, §1, §4

S. aureus ATCC29213 = experiment: Broth microdilution MIC/MBC (ISO 20776-1); type: cell-based, Staphylococcus aureus; settings: for MBC: S. aureus ATCC29213, >99.99% reduction of growth; for MIC: S. aureus ATCC29213, MH II broth, 35 °C, 24 h
Procedure: as §1, §2

MCF-10A cells = experiment: MTT cytotoxicity assay; settings: for IC50: read-out: IC50 ± SD
Procedure: as §3, §1, §4

[1] = HL-60, 24 h, MTT, read-out: IC50 ± SD
[2] = HL-60, 48 h, MTT, read-out: IC50 ± SD
[3] = MCF-10A (non-cancerous), 24 h, MTT, * precipitation of the complex
[4] = MCF-10A (non-cancerous), 48 h, MTT, * precipitation of the complex
[5] = Enterococcus faecalis, read-out: MBC
[6] = Enterococcus faecalis, read-out: MIC
[7] = Pseudomonas aeruginosa, read-out: MBC
[8] = Pseudomonas aeruginosa, read-out: MIC
[9] = Escherichia coli, read-out: MBC
[10] = Escherichia coli, read-out: MIC
[11] = Staphylococcus aureus, read-out: MBC
[12] = Staphylococcus aureus, read-out: MIC

Structure (SMILES) | MBC (E. faecalis ATCC29212) | MIC (E. faecalis ATCC29212) | MBC (P. aeruginosa ATCC27853) | MIC (P. aeruginosa ATCC27853) | MBC (E. coli ATCC25922) | MIC (E. coli ATCC25922) | IC50 (PC-3 cells; PC-3, 24 h) | IC50 (PC-3 cells; PC-3, 48 h) | IC50 (SKOV-3 cells; SKOV-3, 24 h) | IC50 (SKOV-3 cells; SKOV-3, 48 h) | IC50 (HL-60 cells; [1]) | IC50 (HL-60 cells; [2]) | IC50 (MCF-7 cells; MCF-7, 24 h) | IC50 (MCF-7 cells; MCF-7, 48 h) | MBC (S. aureus ATCC29213) | MIC (S. aureus ATCC29213) | IC50 (MCF-10A cells; [3]) | IC50 (MCF-10A cells; [4]) | other results
Clc1ccc([O][Re])c2ncccc12.[C-]#[O+].[C-]#[O+].[C-]#[O+].c1ccc(-c2ccn[nH]2)cc1 [complex 12, [Re(CO)3(ClQ)HPhpz]] | > 512 mg/L | 16 mg/L | >512/>512 mg L^−1 | >512/>512 mg L^−1 | >512/>512 mg L^−1 | >512/>512 mg L^−1 | 41 ± 8 µM | 23 ± 4 µM | > 100 µM | 78 ± 12 µM | 2 ± 1 µM | 1.5 ± 0.4 µM | 29 ± 3 µM | 25 ± 4 µM | > 512 mg/L | 128 mg/L | 34 ± 3 µM | 14 ± 1 µM | 
N.N.[Cl][Pt][Cl] [cisplatin, reference compound] |  |  |  |  |  |  | 58 ± 6 µM | 20 ± 2 µM | > 100 µM | > 100 µM | 46 ± 1 µM |  |  |  |  |  | > 100 µM | > 100 µM | activity (SKOV-3 cells; SKOV-3, incubation time not given): no action; IC50 / activity on normal cells (MCF-10A cells; MCF-10A, incubation time not given): no action
Oc1ccc(Cl)c2cccnc12 [ClHQ, 5-chloro-8-hydroxyquinoline, reference compound] |  |  |  |  |  |  |  |  |  |  |  |  |  |  |  |  |  |  | MBC (E. faecalis ATCC29212; [5]): < 0.5 mg/L; MIC (E. faecalis ATCC29212; [6]): < 0.5 mg/L; MBC (P. aeruginosa ATCC27853; [7]): > 512 µg/mL; MIC (P. aeruginosa ATCC27853; [8]): 256 µg/mL (≈ 1430 µM); MBC (E. coli ATCC25922; [9]): > 512 µg/mL; MIC (E. coli ATCC25922; [10]): 16 µg/mL (≈ 89.1 µM); IC50 (PC-3 cells; Homo sapiens, PC-3, 24 h): 25 ± 3 µM; IC50 (PC-3 cells; Homo sapiens, PC-3, 48 h): 39 ± 3 µM; IC50 (SKOV-3 cells; Homo sapiens, SK-OV-3, SKOV-3, 24 h): > 100 µM; IC50 (SKOV-3 cells; Homo sapiens, SK-OV-3, SKOV-3, 48 h): 42 ± 7 µM; IC50 (HL-60 cells; Homo sapiens, HL-60, 24 h, MTT, read-out: IC50 ± SD): 1.7 ± 0.1 µM; IC50 (HL-60 cells; Homo sapiens, HL-60, 48 h, MTT, read-out: IC50 ± SD): 1.6 ± 0.4 µM; IC50 (HL-60 cells; Homo sapiens, HL-60, incubation time not stated in the text (24 and 48 h), read-out: IC50): < 2 µM; IC50 (MCF-7 cells; Homo sapiens, MCF7, MCF-7, 24 h): 32 ± 8 µM; IC50 (MCF-7 cells; Homo sapiens, MCF7, MCF-7, 48 h): 13 ± 5 µM; selectivity: IC50 for normal cells times higher than for breast cancer cells (MCF-7 cells; MCF-10A versus MCF-7): at least 3 times; MBC (S. aureus ATCC29213; [11]): 32 mg/L (≈ 178 µM); MIC (S. aureus ATCC29213; [12]): 8 mg/L (≈ 44.5 µM); IC50 (MCF-10A cells; Homo sapiens, MCF-10A, 24 h): > 100 µM; IC50 (MCF-10A cells; Homo sapiens, MCF-10A, 48 h): 70 ± 1 µM
Clc1ccc([O][Re])c2ncccc12.[C-]#[O+].[C-]#[O+].[C-]#[O+].c1c[nH]cn1 [complex 9, [Re(CO)3(ClQ)Him]] | > 512 mg/L | 64 mg/L | > 512 µg/mL | 256 µg/mL | 256/256 mg L^−1 | 256/256 mg L^−1 | 29 ± 4 µM | 22 ± 3 µM | 32 ± 5 µM | 28 ± 4 µM | 11 ± 1 µM | 8 ± 2 µM | 58 ± 7 µM | 47 ± 6 µM | >512/>512 mg L^−1 | >512/>512 mg L^−1 | 42 ± 2 µM | 24 ± 1 µM | 
Cc1ncc[nH]1.[C-]#[O+].[C-]#[O+].[C-]#[O+].[Re][O]c1cccc2cccnc12 [complex 2, [Re(CO)3(Q)MeHim]] | > 512 mg/L | 128 mg/L | >512/>512 mg L^−1 | >512/>512 mg L^−1 | >512/>512 mg L^−1 | >512/>512 mg L^−1 | 34 ± 3 µM | 35 ± 2 µM | > 100 µM | 44 ± 1 µM | 10 ± 1 µM | 9 ± 1 µM | 36 ± 3 µM | 30 ± 1 µM | > 512 mg/L | 256 mg/L | 31 ± 4 µM | 29 ± 5 µM | 
Cc1cc(C)[nH]n1.Clc1ccc([O][Re])c2ncccc12.[C-]#[O+].[C-]#[O+].[C-]#[O+] [complex 11, [Re(CO)3(ClQ)Hdmpz]] | 64/64 mg L^−1 | 64/64 mg L^−1 | >512/>512 mg L^−1 | >512/>512 mg L^−1 | 512/>512 mg L^−1 | 512/>512 mg L^−1 | 18 ± 1 µM | 24 ± 4 µM | 40 ± 6 µM | 32 ± 7 µM | 5 ± 1 µM | 2.8 ± 0.4 µM | 18 ± 5 µM | 25 ± 3 µM | 256 mg/L | 64 mg/L | 24 ± 3 µM | 10 ± 1 µM | 
[C-]#[O+].[C-]#[O+].[C-]#[O+].[Re][O]c1cccc2cccnc12.c1c[nH]cn1 [complex 1, [Re(CO)3(Q)Him]] | > 512 mg/L | 64 mg/L | > 512 µg/mL | 128 µg/mL | 256/256 mg L^−1 | 256/256 mg L^−1 | 28 ± 6 µM | 27 ± 4 µM | 36 ± 5 µM | 39 ± 3 µM | 4.3 ± 0.2 µM | 4 ± 1 µM | 34 ± 4 µM | 30 ± 7 µM | > 512 mg/L | 256 mg/L | 39 ± 1 µM | 24 ± 1 µM | 
O=C(O)c1cn(C2CC2)c2cc(N3CCNCC3)c(F)cc2c1=O [CIP, ciprofloxacin, reference compound] |  |  |  |  |  |  |  |  |  |  |  |  |  |  |  |  |  |  | MBC (E. faecalis ATCC29212; [5]): 8 mg/L (≈ 24.1 µM); MIC (E. faecalis ATCC29212; [6]): 2 mg/L (≈ 6.04 µM); MBC (P. aeruginosa ATCC27853; [7]): 8 µg/mL (≈ 24.1 µM); MIC (P. aeruginosa ATCC27853; [8]): 1 µg/mL (≈ 3.02 µM); MBC (E. coli ATCC25922; [9]): 4 µg/mL (≈ 12.1 µM); MIC (E. coli ATCC25922; [10]): < 0.5 µg/mL; MBC (S. aureus ATCC29213; [11]): 1 mg/L (≈ 3.02 µM); MIC (S. aureus ATCC29213; [12]): < 0.5 mg/L

Reference: paper PMC11152041, “Tricarbonyl rhenium(I) complexes with 8-hydroxyquinolines: structural, chemical, antibacterial, and anticancer characteristics” (RSC Advances, 2024)
